Assay results: patent US10159687B2, “Prodrugs of vitamin K” (KAPPA BIOSCIENCE AS, priority 2012, dated 2018)

Columns and labels:
[1] = Light stability in MCT oil (HPLC % area); assay type: physicochemical; conditions: for Purity after 1 h (%) / MK7 content in the sample after 1 h: light exposure 1 h; for Purity after 1 d (%) / MK7 content in the sample after 1 d: light exposure 1 d; for Purity after 3 d (%) / MK7 content in the sample after 3 d: light exposure 3 d; for MK7 content in the sample after 3 d: in %
Description: The light stability of MK-7 was compared certain example compounds as hereinbefore described. Compounds were dissolved separately in ethyl acetate or MCT oil, transferred to glass vial (clear glass) and placed on the bench in a well lit laboratory (ordinary room lighting). […]
(§1) The samples were analyzed by HPLC using aHPLC_KB_001, with the HPLC conditions detailed below.
(§2) HPLC-DAD high pressure system: Agilent, LC system 1100 series
(§3) Analytical column: Supelcosil C-18, 4.6×250 mm, 5 µm
(§4) Column temperature: 40° C.
(§5) Eluent system: 50% Solvent C: MeOH/Water with 0.1% v/v acetic acid (95/5 v/v) 50% Solvent D: Isopropanol
(§6) The content of MK-7 and the MK-7 derivative in the samples have been quantified as % area of the total peak area in the chromatogram.

[2] = Light stability in ethyl acetate (HPLC % area); assay type: physicochemical; conditions: for After 19 hrs % (content as % area of the total peak area) / MK-7 content in the sample after 19 hrs / Initial % (content as % area of the total peak area): in ethyl acetate; for After 19 hrs % (content as % area of the total peak area): after 19 hrs of light exposure (ordinary room lighting); for MK-7 content in the sample after 19 hrs: after 19 hrs of light exposure, MK-7 formed from the derivative; for Initial % (content as % area of the total peak area): clear glass vial, initial time point; for light stability compared with the diacetylated compound: light exposure, comparison in words
Description: The light stability of MK-7 was compared certain example compounds as hereinbefore described. Compounds were dissolved separately in ethyl acetate or MCT oil, transferred to glass vial (clear glass) and placed on the bench in a well lit laboratory (ordinary room lighting). The samples were analyzed after 19 hours of light exposure or more.
as §1, §2, §3, §4, §5, §6

[3] = Rat study: MK-7 in plasma after oral gavage in sunflower oil; assay type: in vivo, male Sprague Dawley Rats; conditions: rats
Description: Brief Procedure: Rats: Male Rats aged 6 to 8 weeks and weighing around 180 to 225 g. Animals were fasted overnight with free access to water. Animals were administered test substance by oral gavage with a dose of 100 μg/kg body weight (in recommended formulation and dose volume). Blood samples (150-200 μl) were collected at various time points during the next 48 hours post dose. To determine the bioavailability of different formulations containing MK-7 in male e Sprague Dawley Rats through gavage. Formulations were both dissolved in sunflower oil. Approximately 0.4 ml/animal (depending on the weight of the animal) via oral gavage (100 μg/kg body weight). There were 6 animals per formulation. Blood samples were collected from the tail vein of each animal and transferred into lithium heparin tubes at 2 and 12 hours post dose. Quantification of analyte in plasma was determined by LC-MS-MS analysis: Analyte: MK-7 in plasma. The data are mean of four measurements (low and high values are not included).

Row | MK7 content in the sample after 1 h [1] [%] | MK7 content in the sample after 1 d [1] [%] | MK7 content in the sample after 3 d [1] | MK7 content in the sample at start ([1]; start) [%] | After 19 hrs % (content as % area of the total peak area) [2] [%] | MK-7 content in the sample after 19 hrs [2] [%] | Initial % (content as % area of the total peak area) [2] [%] | degradation after light exposure ([1]; after 24 hours of light exposure) | degradation after light exposure ([2]; in solution, after 19 hours of light exposure (below Table 1, ethyl acetate)) | Compound | Purity after 1 h (%) [1] [%] | Purity after 1 d (%) [1] [%] | Purity after 3 d (%) [1] [%] | Start purity from CoA (%) ([1]; start) | light stability compared with the diacetylated compound [2] | serum level 12 hours after administration compared with MK-7 (in words) [3]
1 | – | – | – | – | – | – | – | – | – | CCC(=O)Oc1c(C/C=C(\C)CC/C=C(\C)CC/C=C(\C)CC/C=C(\C)CC/C=C(\C)CC/C=C(\C)CCC=C(C)C)c(C)c(OC(=O)CCNC(=O)OC(C)(C)C)c2ccccc12 [Example 12, 3-((2E,6E,10E,14E,18E,22E)-3,7,11,15,19,23,27-heptamethyloctacosa-2,6,10,14,18,22,26-heptaen-1-yl)-2-methyl-4-(propionyloxy)naphthalen-1-yl 3-((tert-butoxycarbonyl)amino)propanoate] | 91.9 | 89.4 | 84.4 | 92 | – | –
2 | 13.1 | 18.0 | 23.65 | 4 | 71.2 | 23.4 | 93.3 | – | – | CC(C)=CCC/C(C)=C/CC/C(C)=C/CC/C(C)=C/CC/C(C)=C/CC/C(C)=C/CC/C(C)=C/Cc1c(C)c(O)c2ccccc2c1OC(=O)c1ccccc1 [Example 2A, 2-((2E,6E,10E,14E,18E,22E)-3,7,11,15,19,23,27-heptamethyloctacosa-2,6,10,14,18,22,26-heptaen-1-yl)-4-hydroxy-3-methylnaphthalen-1-yl benzoate] | 83.9 | 72.5 | 53.3 | 93.3 | – | –
3 | – | – | – | – | – | – | – | – | – | CCC(=O)Oc1c(C/C=C(\C)CC/C=C(\C)CC/C=C(\C)CC/C=C(\C)CC/C=C(\C)CC/C=C(\C)CCC=C(C)C)c(C)c(OC(=O)[C@@H](NC(=O)OC(C)(C)C)C(C)C)c2ccccc12 [Example 10, 3-((2E,6E,10E,14E,18E,22E)-3,7,11,15,19,23,27-heptamethyloctacosa-2,6,10,14,18,22,26-heptaen-1-yl)-2-methyl-4-(propionyloxy)naphthalen-1-yl (tert-butoxycarbonyl)-L-valinate] | 92.7 | 92.0 | 89.0 | 93.5 | – | –
4 | – | – | – | – | 95.4 | – | 98.5 | – | – | CC(C)=CCC/C(C)=C/CC/C(C)=C/CC/C(C)=C/CC/C(C)=C/CC/C(C)=C/CC/C(C)=C/Cc1c(C)c(OC(=O)c2ccccc2)c2ccccc2c1OC(=O)c1ccccc1 [Example 1, 2-((2E,6E,10E,14E,18E,22E)-3,7,11,15,19,23,27-heptamethyl-octacosa-2,6,10,14,18,22,26-heptaen-1-yl)-3-methylnaphthalene-1,4-diyl dibenzoate] | 98.3 | 97.3 | 92.9 | 98.5 | more stable than the diacetylated compound | –
5 | – | – | – | – | – | – | – | – | – | CC(C)=CCC/C(C)=C/CC/C(C)=C/CC/C(C)=C/CC/C(C)=C/CC/C(C)=C/CC/C(C)=C/Cc1c(C)c(OC(=O)c2ccc(C(F)(F)F)cc2)c2ccccc2c1OC(=O)c1ccc(C(F)(F)F)cc1 [Example 13, 2-((2E,6E,10E,14E,18E,22E)-3,7,11,15,19,23,27-heptamethyloctacosa-2,6,10,14,18,22,26-heptaen-1-yl)-3-methylnaphthalene-1,4-diyl bis(4-(trifluoromethyl)benzoate)] | 83.6 | 84.8 | 79.6 | 90.2 | – | –
6 | – | – | – | – | – | – | – | – | – | CCOP(=O)(OC/C=C(\C)CC/C=C(\C)CC/C=C(\C)CC/C=C(\C)CC/C=C(\C)CC/C=C(\C)CCC=C(C)C)Oc1c(CC)c(C)c(OC(=O)c2ccccc2)c2ccccc12 (stereo not shown) [Example 4, 4-((ethoxy(((2E,6E,10E,14E,18E,22E)-3,7,11,15,19,23,27-heptamethyl-octacosa-2,6,10,14,18,22,26-heptaen-1-yl)oxy)phosphoryl)oxy)-3-ethyl-2-methylnaphthalen-1-yl benzoate] | 86.4 | 84.4 | 81.5 | 86.7 | – | –
7 | – | – | – | – | – | – | – | – | – | CCOP(=O)(OCC)Oc1c(C)c(C/C=C(\C)CC/C=C(\C)CC/C=C(\C)CC/C=C(\C)CC/C=C(\C)CC/C=C(\C)CCC=C(C)C)c(OC(=O)CC)c2ccccc12 [Example 9, 4-((diethoxyphosphoryl)oxy)-2-((2E,6E,10E,14E,18E,22E)-3,7,11,15,19,23,27-heptamethyloctacosa-2,6,10,14,18,22,26-heptaen-1-yl)-3-methylnaphthalen-1-yl propionate] | 90.1 | 89.0 | 84.2 | 90.7 | – | –
8 | 2.7 | 4.1 | 5.6 | – | 87.6 | 2.8 | 91.5 | – | – | CC(C)=CCC/C(C)=C/CC/C(C)=C/CC/C(C)=C/CC/C(C)=C/CC/C(C)=C/CC/C(C)=C/Cc1c(C)c(OC(=O)c2ccccc2)c2ccccc2c1O [Example 2B, 3-((2E,6E,10E,14E,18E,22E)-3,7,11,15,19,23,27-heptamethyloctacosa-2,6,10,14,18,22,26-heptaen-1-yl)-4-hydroxy-2-methylnaphthalen-1-yl benzoate] | 91.9 | 84.6 | 63.8 | 91.5 | – | –
9 | – | – | – | – | 53.7 | – | 99.4 | approximately 70% | approximately 50% | CC(C)=CCC/C(C)=C/CC/C(C)=C/CC/C(C)=C/CC/C(C)=C/CC/C(C)=C/CC/C(C)=C/CC1=C(C)C(=O)c2ccccc2C1=O [MK-7, 2-((2E,6E,10E,14E,18E,22E)-3,7,11,15,19,23,27-heptamethyloctacosa-2,6,10,14,18,22,26-heptaen-1-yl)-3-methylnaphthalene-1,4-dione, reference compound] | 97.2 | 73.5 | 32.2 | 99 | – | –

Row | Compound | MK7 content in the sample after 1 h [1] [%] | MK7 content in the sample after 1 d [1] [%] | MK7 content in the sample after 3 d [1] | MK7 content in the sample at start ([1]; start) [%] | After 19 hrs % (content as % area of the total peak area) [2] [%] | MK-7 content in the sample after 19 hrs [2] [%] | Initial % (content as % area of the total peak area) [2] [%] | degradation after light exposure ([1]; after 24 hours of light exposure) | degradation after light exposure ([2]; in solution, after 19 hours of light exposure (below Table 1, ethyl acetate)) | Purity after 1 h (%) [1] [%] | Purity after 1 d (%) [1] [%] | Purity after 3 d (%) [1] [%] | Start purity from CoA (%) ([1]; start) | light stability compared with the diacetylated compound [2] | serum level 12 hours after administration compared with MK-7 (in words) [3]
10 | CCC(=O)Oc1c(C)c(C/C=C(\C)CC/C=C(\C)CC/C=C(\C)CC/C=C(\C)CC/C=C(\C)CC/C=C(\C)CCC=C(C)C)c(OC(=O)CC)c2ccccc12 [Example 7, 2-((2E,6E,10E,14E,18E,22E)-3,7,11,15,19,23,27-heptamethyloctacosa-2,6,10,14,18,22,26-heptaen-1-yl)-3-methylnaphthalene-1,4-diyl dipropionate] | – | – | – | – | 97.7 | – | 98.5 | – | – | 98.0 | 96.7 | 93.8 | 98.5 | more stable than the diacetylated compound | the same
